Measurements from article PMC4393935, “A Pharmacokinetic Study of Antimalarial 3,5-Diaryl-2-aminopyridine Derivatives” (Malaria Research and Treatment, 2015).
Where two headings read alike, the source gives them in different places.

Assays:
[1] = Pharmacokinetic study in C57BL/6 mice after oral and intravenous dosing, blood levels by LC-MS/MS; format: in vivo; settings: for T 1/2 (apparent terminal half-life) / Cmax / half-life / AUC(0-inf) / clearance / Vd: mean ± SD of five mice; for Cmax: read-out: C Max (maximum blood concentration); for half-life: read-out: T 1/2 (apparent terminal half-life); for bioavailability: read-out: BA (oral bioavailability); for AUC(0-inf) / clearance / Vd: mouse; for AUC(0-inf): read-out: AUC0–∞ (total exposure) (converted); for clearance: read-out: CL (blood clearance); for Vd: read-out: Vss (volume of distribution)
Method: Male and female C57BL/6 mice (20–30 g) were obtained from the University of Cape Town Medical School Animal Unit. The mice were housed in ventilated cages at room temperature (approximately 22°C) with a constant supply of food and water and were monitored twice daily. The study was authorized by the University of Cape Town's Faculty of Health Science Animal Research Ethics Committee before its commencement (Reference number 012/020). All the work was performed according to the guidelines established by Austin and colleagues.
The compounds (Figure 1) were dissolved in DMSO and diluted further with phosphate buffered saline (PBS) to give a final DMSO concentration of 1%.
Comprehensive PK studies were performed on groups of five animals to determine the pharmacokinetic properties of the test compounds. This involved the oral dosing (200 μL) of 10-week-old C57BL/6 male mice at 20 mg/kg and intravenous dosing (100 μL) under anesthesia at 4 mg/kg via the dorsal penile vein. For the oral dosage a gavage needle was used for the administration of test compounds directly into the lower esophagus or stomach. Blood samples (approximately 30 μL) were collected serially by needle prick on the tail vein near to the tip of the tail at 0, 0.17, 0.5, 1, 2, 3, 5, 7, and 9 hours after dosing. Lithium-heparin-coated tubes were used to collect the blood samples. The collected blood samples were placed on ice immediately after sampling and were frozen at −80°C until analyzed.
The blood samples were brought to room temperature and then mixed by vortexing to ensure homogeneity. Twenty microliters of blood was mixed with 50 μL Milli-Q water and 150 μL acetonitrile. The sample was vortexed for 15 seconds, sonicated for 10 minutes, and centrifuged at 13000 ×g for 5 minutes. The supernatant was transferred to a flat-bottom glass insert and placed in a glass vial for analysis.
The liquid chromatography (LC) system employed was an ultrafast liquid chromatography (UFLC) system (Shimadzu) and the separation of the compounds was performed on a Phenomenex, Luna 5 μm PFP(2), 100 Å, and 50 mm × 2 mm analytical column. For method development, the compounds were prepared at 1 mg/mL stock in methanol and were further diluted with 50% acetonitrile: 0.1% formic acid to make a final concentration of 1 μg/mL. Analyst software version 1.5.2 (AB Sciex) was employed for data acquisition, peak-area integration, and quantitation of compounds in blood samples.
The mobile phase A consisted of 0.1% formic acid in water (v/v) and mobile phase B consisted of acetonitrile. Samples were maintained at 4°C until injection. The flow rate was set at 500 μL/min and the temperature of the column was maintained at 40°C. For the separation of the compounds the mobile phase was increased from 5% to 95% B over 2 minutes and returned to 5% B within 0.1 minutes and then equilibrated for 3 minutes. Calibration curves were derived in each analytical run in duplicate and were employed to extrapolate the concentration of the compounds in the blood samples.
The MS system consisted of an AB Sciex 3200 Q-Trap mass spectrometer which was operated at unit resolution in the multiple reaction monitoring (MRM) mode. The calibration range for all the compounds was between 7.8 and 1000 ng/mL and the accuracy (%Nom) for the calibration curves was between 90.31 and 104.0%.
Noncompartmental analysis was performed on each individual set of data using PK Solutions 2.0 Pharmacokinetic Analysis Software (Summit Research Services, Montrose, USA), which uses an automated Excel-based program. […]

[2] = tested on: human Ether-à-go-go-Related Gene (hERG); design: method as in PMID 23189922; settings: result in words; cited from earlier work
[3] = design: method as in PMID 23189922; settings: result in words; cited from earlier work
[4] = tested on: P. berghei; design: method as in PMID 23189922; settings: result in words; cited from earlier work
[5] = male Sprague Dawley rats, cited from earlier work
[6] = male, C57BL/6, mouse, whole blood, iv, 4 mg/kg, IV, 4 mg/kg, blood
[7] = male, C57BL/6, mouse, whole blood, oral, oral 20 mg/kg vs IV 4 mg/kg
[8] = male, C57BL/6, mouse, whole blood, po, 20 mg/kg, oral, 20 mg/kg, blood
[9] = male, C57BL/6, mouse, whole blood, po, 20 mg/kg, oral, 20 mg/kg, blood, read-out: T Max
[10] = male, whole blood, IV, 4 mg/kg, blood
[11] = male, whole blood, oral, 20 mg/kg, blood
[12] = oral, 20 mg/kg, blood, 20 mg/kg

Compound | T 1/2 (apparent terminal half-life) ([1]; IV, 4 mg/kg, blood) [h] | Cmax [1, 6] [nM] | half-life [1, 6] [h] | bioavailability [1, 7] [%] | Cmax [1, 8] [nM] | half-life [1, 8] [h] | Tmax [1, 9] [h] | AUC(0-inf) [1, 10] [µM·h] | clearance ([1]; male, whole blood, IV, 4 mg/kg) [mL/min/kg] | Vd ([1]; male, whole blood, IV, 4 mg/kg) [L/kg] | AUC(0-inf) [1, 11] [µM·h] | T 1/2 (apparent terminal half-life) ([1]; oral, 20 mg/kg, blood) [h] | Cmax [1, 12] [nM] | hERG activity compared to the parent compound 3 [2] | metabolic stability [3] | activity in a P. berghei infected mouse model [4] | other results
Nc1ncc(-c2ccc(C(=O)N3CCOCC3)cc2)cc1-c1ccc(C(F)(F)F)cc1 [Compound 1] | 0.87 ± 0.03 | 2110 ± 60 | 0.68 to 0.87 | 69 ± 19 | 1900 | 2.5 to 3 | ≤ 1 | 1.72 | 83.6 ± 12 | 9.51 ± 1 | 5.99 | 2.53 ± 0.1 | 1920 ± 30 | reduced hERG activity | showed metabolic stability | displayed activity | T Max ([1]; oral, 20 mg/kg, blood): 1 h
CNS(=O)(=O)c1ccc(-c2cnc(N)c(-c3ccc(C(F)(F)F)nc3)c2)cc1 [Compound 2] | 0.68 ± 0.6 | 960 ± 60 | 0.68 to 0.87 | 59.7 | 3300 | 2.5 to 3 | ≤ 1 | 1.75 | 92.6 ± 19 | 27 ± 1.3 | 5.23 | 2.96 ± 0.2 | 3340 | reduced hERG activity | showed metabolic stability | displayed activity | Tmax ([1]; male, C57BL/6, mouse, whole blood, po, 20 mg/kg, oral, 20 mg/kg, blood, read-out: time to maximum concentration): ≤ 0.5 h; BA (oral bioavailability) ([1]; oral 20 mg/kg vs IV 4 mg/kg): 60 ± 5%
COc1ccc(-c2cc(-c3ccc(S(C)(=O)=O)cc3)cnc2N)cn1 [Compound 3] |  |  |  |  |  |  |  |  |  |  |  |  |  |  |  |  | apparent t 1/2 ([5]; dosed intravenously): 8 h; apparent t 1/2 ([5]; dosed orally): 6.5 h; AUC ([5]; intravenous): 789 µM·min; AUC ([5]; oral): 6880 µM·min; clearance rate [5]: 18.3 mL/min/kg; oral bioavailability [5]: > 100%
